Data on 2 compounds can be found in PMC10135050, “Neutralizing Carbapenem Resistance by Co-Administering Meropenem with Novel β-Lactam-Metallo-β-Lactamase Inhibitors” (Antibiotics, 2023).

The target in one data set is T1, NDM-1 (Klebsiella pneumoniae, UniProt C7C422).
T1 construct: purchased RayBiotech (RayBiotech Life Inc., Peachtree Corners, GA, USA)
As to the kind of experiment: Enzyme inhibition kinetics (nitrocefin). It is filed as biochemical. The method, then: (§1) The IC50 was calculated from the generated sigmoidal curves (Figure S1) using GraphPad Prism software version 8.0.2 (GraphPad Inc., San Diego, CA, USA), and the Ki app was calculated using the Cheng–Prusoff equation [43]. […] However, we expect that inhibitors that remove one Zn atom from the enzyme active site will be slow-acting irreversible inhibitors that would require a more detailed kinetic analysis than used here. […] Structurally, BP2 is a thiazole-containing compound, while BP1 lacks this moiety. It is unclear whether the increased inhibition activity is due to the longer distance between the chelator moiety and the lactam moiety, which is less likely to sterically hinder the chelator, or if it is the thiazole itself that boosts the interaction efficacy of the compound.
(§2) A dose-dependent enzyme inhibition assay was performed using a Biotek PowerWave XS2 (Biotek Instruments Inc., Winooski, VT, USA) plate reader. NDM-1 and VIM-2 enzymes were purchased from RayBiotech (RayBiotech Life Inc., Peachtree Corners, GA, USA). Enzymes in the quantity of 1 nM (NDM-1) or 0.5 nM (VIM-2) were used in this study with a fixed nitrocefin concentration of either 120 µM (NDM-1) or 50 µM (VIM-2) and varying BP2 concentrations ranging from 5 to 200 µM (NDM-1) and 2.5 to 300 µM (VIM-2) in 50 mM HEPES buffer supplemented with 100 µg/mL BSA and 10 µM ZnCl2. Inhibition was measured at 482 nm at 25 °C.

For another data set, the target named is T2, VIM-2 (Escherichia coli, UniProt Q5U7L7).
T2 construct: purchased RayBiotech (RayBiotech Life Inc., Peachtree Corners, GA, USA)
The experiment in a line: Enzyme inhibition kinetics (nitrocefin). It is filed as biochemical. The method, then:
as §1, §2

Data set [1] is described as follows: Plasma drug concentrations in the in vivo efficacy study. The settings on record: male, mouse, 100 mg/kg IP every two hours, infected BALB/c mice. As to the method:
A murine thigh infection model described by Michail et al. was performed with minor modifications. Male Bragg inbred albino c-strain (BALB/c) mice weighing 20–25 g (n = 90) were used in this study. Each of the three groups constituted n = 30 mice, with n = 6 mice receiving treatment every two hours. Prior to infection, mice were IP treated with 150 mg/kg cyclophosphamide on day one and 100 mg/kg on day four of the trial. This was performed to induce neutropenia in the mice. Neutropenia was confirmed by a neutrophil count of <100/mm^3. On day five of the trial, 0.1 mL inoculum containing 10^6–10^8 cfu/mL of K. pneumoniae NDM were IM injected into the right thigh of the mice to initiate infection. Meropenem monotherapy, BP2 + meropenem combination therapy, or normal saline was administered every two hours in an eight-hour treatment period. Mice were euthanized by isoflurane overdose at 2 h, 4 h, 6 h and 8 h post dosing. The right thigh muscle was then aseptically removed and homogenized in 5 mL PBS. Homogenates were spread onto Mueller–Hinton agar and MacConkey agar plates, followed by incubation at 35 °C for 24 h and enumeration of the cfu/mL.
A Shimadzu Nexera Series (Shimadzu Corporation, Kyoto, Japan) liquid chromatography system was coupled with Shimadzu LCMS-8050 tandem mass spectrometer (Shimadzu, Kyoto, Japan). The chromatographic separation was achieved using a Shim-Pack Velox SP-C18 column (100 mm × 2.1 mm, 2.7 µm particle size) with a gradient mobile phase comprised of Millipore water (0.1% v/v trifluoroacetic acid) (A) and Acetonitrile (0.1% v/v trifluoroacetic acid) (B). The gradient method started from 5 to 95% B in 8 min, then held at 95% B for up to 12 min; thereafter, it was brought back to 5% B at 12.1 min. The column was equilibration time was 2.9 min with a flow rate of 0.4 mL min^−1 and the column oven temperature at 40 °C. The injection volume was 25 µL, and the total run time of the method was 15 min. Quantitative and qualitative studies were conducted using MRM mode via an ESI interface, with the following source parameters: nitrogen nebulizer gas flow 3 L/min; heat gas 10 L/min and interface temperature of 300 °C. The precursor and product ions optimized were m/z 813.2→330.0 for BP2, m/z 384.50→68.25 for meropenem and m/z 350.50→304.40 for Ampicillin (IS). Results were analyzed using LabSolutions Insight LCMS. All data are expressed as a mean ± SD.
Figure 6 Plasma BP2 and meropenem concentrations over the eight-hour treatment period. BALB/c mice were infected intramuscularly (IM) in the right thigh with 10^6–10^8 K. pneumoniae NDM cfu/mL. Treatment was initiated two hours post infection with either S, M, or BP2. Four treatment doses were administered via intraperitoneal (IP) injection every two hours. Data are presented as a mean ± SD (n = 6). Meropenem-only (red triangle)—animals treated with meropenem only, Meropenem with BP2 (red circles)—meropenem concentration when animals were treated with the BP2 combination. BP2 with meropenem (green square)—concentration of BP2 when animals were treated with the meropenem combination.

For a further data set, the system named is HepG2 cells. As to the kind of experiment: LDH membrane leakage assay. It is filed as cell-based, human. As to the method:
HepG2 cells were cultured in 25 mL cell culture flasks using Eagle’s minimum essentials medium (EMEM) supplemented with 10% fetal bovine serum, 1% pen-strep-fungizone and 1% L-glutamine, maintained in a humidified incubator (37 °C, 5% CO2) until approximately 80% confluence.
The LDH assay was used to assess membrane damage of HepG2 cells. Supernatant collected from control and BP2 treated cells were centrifuged (400× g, 24 °C, 10 min) and dispensed (100 μL/well) in triplicate into a 96-well microtiter plate. LDH reagent (100 μL, 11644793001, Sigma Aldrich, Schnelldorf, Germany) was added to each well. The plate was incubated for 30 min at room temperature in the dark. Absorbance was read using a spectrophotometer (Bio-Tek μQuant,) at […]. Results are represented as relative fold change compared to untreated control.

T1 sequence (C7C422 29-270, looked up, species assumed): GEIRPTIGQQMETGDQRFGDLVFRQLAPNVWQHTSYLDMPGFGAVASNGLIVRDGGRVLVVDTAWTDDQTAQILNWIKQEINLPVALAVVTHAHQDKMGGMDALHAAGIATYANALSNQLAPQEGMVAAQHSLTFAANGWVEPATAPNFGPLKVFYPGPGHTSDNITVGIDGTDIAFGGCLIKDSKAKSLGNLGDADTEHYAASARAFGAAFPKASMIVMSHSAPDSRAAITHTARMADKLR

For the compound `CON=C(C(=O)NC1C(=O)N2C(C(=O)O)=C(COC(C)=O)CSC12)c1csc(NC(=O)CC(C(=O)OC)N2CCN(CC(=O)O)CCN(CC(=O)O)CC2)n1` (stereo in doubt) [BP2], the IC50 against NDM-1 (NDM-1 1 nM, nitrocefin 120 µM, mean ± SD) was 70.7 ± 4.5 µM. Moreover, the Ki at NDM-1 (NDM-1, Cheng–Prusoff equation, read-out: Ki app) was determined as 35.3 µM. Besides, the IC50 against VIM-2 (VIM-2 0.5 nM, nitrocefin 50 µM, mean ± SD) came out at 57.1 ± 2.9 µM. Moreover, on VIM-2 (VIM-2, Cheng–Prusoff equation, read-out: Ki app), the Ki is 30.9 µM. In addition, in data set [1], the concentration at 2 h worked out at 2670 ng/mL, the concentration at 4 h worked out at 6970 ng/mL, the concentration at 6 h came out at 4430 ng/mL and the concentration at 8 h worked out at 3490 ng/mL. In the data set on HepG2 cells (HepG2, 1 µg/mL), the LDH levels result is “remained unaffected”. Also, in the data set on HepG2 cells (HepG2, 8 µg/mL–200 µg/mL), the LDH membrane leakage entry is recorded as “significantly decreased”. Besides, the “Cell membrane integrity (LDH leakage)” value in the data set with HepG2 cells (HepG2, all concentrations tested) was “not disrupted”.
`C[C@@H](O)[C@H]1C(=O)N2C(C(=O)O)=C(S[C@@H]3CN[C@H](C(=O)N(C)C)C3)[C@H](C)[C@H]12` [Meropenem]: in data set [1], the concentration at 2 h worked out at 7060 ng/mL, the concentration at 4 h turned out to be 27500 ng/mL, the concentration at 6 h amounted to 14900 ng/mL and the concentration at 8 h was found to be 8840 ng/mL.
